For data set [1] the following is noted: n-octanol/PBS pH 7.4, shake flask. The method, then: The n-octanol/water distribution coefficients for each radioligand were determined using the shake-flask method. Each experiment was conducted in triplicate. To initiate the experiment, 30 µL of the labeling mixture was combined with 570 µL of PBS (pH 7.4) and 600 µL of n-octanol in a 1.5 mL Eppendorf-Tube. The resulting mixture was shaken at room temperature at 1500 rpm for 5 min before undergoing centrifugation. An aliquot was extracted from each phase, and radioactivity was measured on a γ-counter (ISOMED 2160). Subsequently, mean values were calculated and adjusted for background activity. The log D7.4 value was determined utilizing the equation: logD7.4=logAn-octanol/APBS

Data set [2] can be described thus: Proteolytic stability in human serum at 37 °C, radio-HPLC. It is filed as in vitro ADME. The settings on record: 48 h. Here is the method: For proteolytic stability studies, a solution of the radiolabeled compound was diluted with human serum in a ratio of 1:10. This mixture then underwent incubation at 37 °C while being shaken at 300 rpm. At each designated timepoint (1, 24 and 48 h), an aliquot was withdrawn and added to a detergent solution (water with 20% v/v EtOH, 5% v/v 5 mM aqueous EDTA, 0.5% v/v Triton X-100, 0.1% m/v saponin, 0.05% v/v 0.5 mM aqueous o-phenanthroline) in a ratio of 1:2 for precipitation of serum proteins. The mixture was cooled on ice for 5 min, followed by centrifugation at 12,000 g for 5 min. A minor portion of the resulting supernatant was subjected to analytical radio-HPLC (reversed-phase, Phenomenex Jupiter 300 C-18, 5 µm, 4.6 × 250 mm) with 10–95% acetonitrile (0.1% TFA) in water (0.1% TFA) in a linear gradient over 15 min, 1 mL/min, γ-detection). The assessment and graphical representations were performed using OriginPro® 9.0.

Data set [3] deals with PC3 PD-L1 and PC3 mock cells. The data set can be described thus: In vitro cell uptake in PC3 PD-L1 and PC3 mock cells. It is filed as cell-based, human. The settings on record: for incubation time at which cell uptake plateaued: PC3 cells, incubation 30–240 min at or close to KD; for uptake/binding to PC3 PD-L1-positive cells vs PC3 mock cells: mixed-effects model, main effect of cell type. Here is the method:
Both the target-positive (PC3 PD-L1) and negative cells (PC3 mock) were seeded at ~60,000 cells per well two days prior to the experiment. At the time of experiment, cells were then incubated with the respective radioligand at or close to the KD (determined by saturation binding) in binding buffer. For each timepoint and radiotracer (30, 60, 120 and 240 min), a single plate was used (with triplicate measurements). Additional controls per plate included plastic retention, nonspecific binding [excess of unlabeled BMS-1166 (in DMSO, resulting in 0.03% v/v) for both PC3 PD-L1 and PC3 mock] and cells incubated with PBS only (protein control). Following incubation, cells were washed twice in ice-cold binding buffer, lysed in 500 μL of 0.1 M NaOH + 1% SDS and radioactivity was measured in a gamma counter (Perkin Elmer Wizard 1480) and decay corrected to a reference time (end of radiolabeling).
Protein content was determined for each timepoint and cell type by BCA assay.
Figure S27: Cell uptake (fmol/mg protein) of [64Cu]Cu-14&16 into either PC3 PD-L1 or PC3 mock cells. Uptake of both […]
effects model. Binding to PC3 mock cells is similar to that of PC3 PD-L1 and PC3 mock cells blocked with an excess of […]

The target of data set [4] is T1, PD-L1 (Homo sapiens, UniProt Q9NZQ7). Nature of the data set: Real-time radioligand binding (LigandTracer) on PC3 PD-L1 overexpressing cells, without BSA. Set-up: expressed in transfected cells; host or cells: PC3 PD-L1 overexpressing cells. The settings on record: for Kd: PC3 PD-L1 overexpressing cells, room temperature, without BSA; for ka: association rate constant; for ka / kd: real-time binding; for kd: dissociation rate constant. The method, then:
For the saturation binding experiments, cells were detached with 0.05% Trypsin–EDTA (Gibco, USA), and counted (CASY1 cell counter, Schaerfe System, Reutlingen, Germany). Cells were then diluted in medium to ~ 160,000 cells/mL and seeded in 48 well plates (Falcon Multiwell #353078, ThermoFisher, Karlsruhe, Germany) for at least 2 days prior to saturation binding experiments. For real-time radioligand binding, approximately 400,000 cells/mL were seeded into one side of petri dishes (3 mL, Nunclon, # 150350, ThermoFisher Germany) ~ 24 h before the experiments.
To investigate binding kinetics, including the association rate constant (ka) and dissociation rate constant (kd), as well as the dissociation constant (KD), a real-time assay system (LigandTracer Yellow or LigandTracer White, Ridgeview Instruments AB, Uppsala, Sweden) was utilized. The petri dish contained attached cells in medium (3 mL) on one side, while radioactivity was detected on the opposing side. The petri dish is set upon an inclined base, allowing continuous measurement of alternating portions of the dish for bound radioligand (cells) compared to the background signal (no cells). Binding experiments were carried out at room temperature using CO2-independent medium (Gibco #18045088, ThermoFisher Germany).
The association phase consisted of incubation with two concentrations (30 and 90 nM, each for 90 min) of our ^64Cu-labeled PD-L1-radioligands, binding to PC3 PD-L1 overexpressing cells. Following this, the incubation medium was replaced with fresh medium, and the dissociation phase was monitored for a minimum of 2 h. […] Data were recorded as decay-corrected counts per second (CPS). Subsequently, binding data were analyzed using TraceDrawer software (version 1.9.2, Ridgeview Instruments AB, Uppsala, Sweden). Traces were imported, potential spikes (instances of sudden CPS increases exceeding 100% of the previous data point) were eliminated, and each trace was normalized to its own baseline (set as 0%) and its maximum value (set as 100%).

The target in data set [5] is T1, PD-L1. Nature of the data set: Saturation binding assay on human PD-L1 transduced PC3 cells (assay buffer with 2.5% BSA). The arrangement: expressed in transfected cells; host or cells: PC3 cells transduced with human PD-L1 (PC3-PD-L1). The settings on record: for Kd: human PD-L1 transduced PC3 cells, on ice 90 min, PBS + 2.5% w/v BSA; for Bmax: saturation binding, pmol/mg protein, PC3 PD-L1 cells.

“And” between values parts separate entries of the source, which are not always exact repeats. Identical values can stand only once.

T1 sequence (Q9NZQ7 19-290): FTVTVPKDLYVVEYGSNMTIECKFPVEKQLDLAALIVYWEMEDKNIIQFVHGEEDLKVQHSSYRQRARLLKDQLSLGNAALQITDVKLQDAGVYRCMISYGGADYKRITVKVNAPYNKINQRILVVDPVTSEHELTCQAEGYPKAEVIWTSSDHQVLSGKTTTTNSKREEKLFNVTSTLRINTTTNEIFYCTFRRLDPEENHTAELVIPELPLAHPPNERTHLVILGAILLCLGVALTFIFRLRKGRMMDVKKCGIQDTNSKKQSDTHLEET

On to `Cc1c(COc2cc(OCc3cncc(S(C)(=O)=O)c3)c(CN[C@@H](CS(=O)(=O)O)C(=O)NCCS(=O)(=O)O)cc2Br)cccc1-c1cccc(OCc2cn(CCCN3CCN(C(=O)[C@H](CS(=O)(=O)O)NC(=O)CC[C@H](C(=O)[O-])N4CCN(CC(=O)[O-])CCN(CC(=O)[O-])CC4)CC3)nn2)c1C.[64Cu+2]` [[^64Cu]Cu-14], for which, in data set [1], the “Log D7.4” value is reported as “–3.00 ± 0.03”. Also, the “intact radioligand after incubation in human serum” value in data set [2] is listed as “over 95%”. Moreover, the “incubation time at which cell uptake plateaued” value in data set [3] came out at 60 min. Further, in data set [3] (listed as [64Cu]Cu-14), the “incubation time at which cell uptake plateaued” value was at most 60 min and the “uptake/binding to PC3 PD-L1-positive cells vs PC3 mock cells” value is reported as “significant main effect of target expression”. At PD-L1 [4], the Kd is ~20 nM and 23.3 nM; the ka entry is “(5.06 ± 0.25) × 10^3 (M × s)^–1”; the kd result is listed as “(1.17 ± 0.06) × 10^–4 s^–1”. For the same compound, on PD-L1 [5], the Kd was found to be 100 nM; the Bmax was 2.40 pmol/mg and 2.40 ± 0.48 pmol/mg.
For the compound `Cc1c(COc2cc(OCc3cncc(S(C)(=O)=O)c3)c(CN[C@@H](CS(=O)(=O)O)C(=O)NCCS(=O)(=O)O)cc2Br)cccc1-c1cccc(OCc2cn(CCCN3CCN(C(=O)[C@H](CS(=O)(=O)O)NC(=O)CCCC(=O)NC45CNCCNCC(N)(CNCCNC4)CNCCNC5)CC3)nn2)c1C.[64Cu+2]` [[^64Cu]Cu-16], the “Log D7.4” value in data set [1] was “–2.79 ± 0.02”. Further, in data set [2], the “intact radioligand after incubation in human serum” value was 89%. The “uptake/binding to PC3 PD-L1-positive cells vs PC3 mock cells” value in data set [3] (listed as [64Cu]Cu-16) was “significant main effect of target expression”. For the same compound, at PD-L1 [4], the affinity, expressed as Kd, was 24.2 ± 0.93 nM; the ka entry was “(5.55 ± 0.31) × 10^3 (M × s)^–1”; the kd result was “(1.35 ± 0.09) × 10^–4 s^–1”. On PD-L1 [5], the Kd came out at 265 ± 12.5 nM; the Bmax was 3.30 pmol/mg and 3.30 ± 0.46 pmol/mg.

In general, Kd refers to a measure of binding affinity in units of concentration.
